One test concerns the target T1, IDH2 R172K (Homo sapiens, UniProt P48735, R172K).
T1 sequence (P48735 40-452 R172K): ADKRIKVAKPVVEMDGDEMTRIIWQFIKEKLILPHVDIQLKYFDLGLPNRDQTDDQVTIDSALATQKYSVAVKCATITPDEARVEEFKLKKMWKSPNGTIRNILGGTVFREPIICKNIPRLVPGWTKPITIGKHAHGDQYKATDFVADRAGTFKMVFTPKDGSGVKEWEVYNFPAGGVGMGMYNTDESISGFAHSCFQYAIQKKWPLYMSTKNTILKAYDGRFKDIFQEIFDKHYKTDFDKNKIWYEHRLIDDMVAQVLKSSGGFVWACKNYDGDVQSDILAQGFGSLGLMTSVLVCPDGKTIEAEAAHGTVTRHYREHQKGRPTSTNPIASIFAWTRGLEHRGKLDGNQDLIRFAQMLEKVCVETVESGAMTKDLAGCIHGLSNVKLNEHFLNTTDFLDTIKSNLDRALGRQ
The test is described as follows: IDH2 R172K enzymatic assay (NADPH cofactor depletion, diaphorase/resazurin readout). It counts as biochemical. Particulars: read-out: Enz R172K. How it is done:
Compounds are assayed for IDH2 R172K inhibitory activity through a cofactor depletion assay. […] The reaction is terminated by the addition of a second enzyme, diaphorase, and a corresponding substrate, resazurin. Diaphorase reduces resazurin to the highly fluorescent resorufin with the concomitant oxidation of NADPH to NADP, both halting the IDH2 reaction by depleting the available cofactor pool and facilitating quantitation of the amount of cofactor remaining after a specific time period through quantitative production of an easily detected fluorophore.
The test compound is then incubated for one hour at room temperature with the enzyme; before starting the IDH2 reaction with the addition of 10 μl of substrate mix containing 50 μM NADPH and 6.3 mM α-KG in the buffer described above. After a further one hour of incubation at room temperature, the reaction is halted and the remaining NADPH measured through conversion of resazurin to resorufin by the addition of 25 μl Stop Mix (36 μg/ml diaphorase enzyme and 60 μM resazurin; in buffer).

For another test, the target named is T2, IDH2 R140Q (Homo sapiens, UniProt P48735, R140Q).
T2 sequence (P48735 40-452 R140Q): T1 sequence (P48735 40-452 R172K) with R101Q, K133R
The test is described as follows: IDH2 R140Q enzymatic assay (cofactor depletion, similar format). Format: biochemical. Particulars: read-out: Enz R140Q.

Test [1] deals with U87MG pLVX-IDH2 R140Q-neo cells. The test is described as follows: U87MG pLVX-IDH2 R140Q-neo cell based assay, 2-HG in media by LC-MS at 48 hours. An outline of the steps:
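U87MG cells stably expressing IDH2 R140Q were seeded overnight, then exposed to compound at 0.2% final DMSO at 37 °C, 5% CO2. 2-HG in the medium was quantified by LC-MS at 48 h. Growth inhibition was read by CellTiter-Glo luminescence at 72 h.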

Numbering of substitutions follows the chain as printed. Where two headings read alike, the source gives them in different places.

As to `COc1ccc(-c2nc(Nc3ccccc3)nc(NC(C)C)n2)cc1` [Compound 116], the IC50 at IDH2 R172K fell in the range of 1000 to 10000 nM; on IDH2 R140Q it was 100 to 1000 nM.
On the same counts, the results for `Cc1cccc(C)c1-c1nc(Nc2ccccc2)nc(NC(C)C)n1` [Compound 117] are 1000 to 10000 nM and 100 to 1000 nM.
As for `CC(C)Nc1nc(Nc2ccc(O)cc2)nc(-c2ccccc2)n1` [Compound 133], the results for the IC50 at IDH2 R172K and on IDH2 R140Q were over 10000 nM and 100 to 1000 nM, respectively.
In the case of `CC(C)Nc1nc(NC2CCOCC2)nc(-c2ccccc2)n1` [Compound 137], the IC50 at IDH2 R172K was 1000 to 10000 nM; at IDH2 R140Q it was 100 to 1000 nM.
Take `CC(C)Nc1nc(Nc2ccccc2C#N)nc(-c2ccccc2)n1` [Compound 165]: the IC50 at IDH2 R172K fell in the range of 1000 to 10000 nM; on IDH2 R140Q, 100 to 1000 nM.
On the same counts, the results for `c1ccc(-c2nc(Nc3ccncc3)nc(NC3CC3)n2)cc1` [Compound 217, N^2-cyclopropyl-6-phenyl-N^4-(pyridin-4-yl)-1,3,5-triazine-2,4-diamine] are 1000 to 10000 nM and under 100 nM.
The like results for `O=C(Nc1nc(Nc2ccccc2)nc(-c2ccccc2)n1)C1CCCO1` (stereo not drawn) [Compound 243, N-(4-phenyl-6-(phenylamino)-1,3,5-triazin-2-yl)tetrahydrofuran-2-carboxamide] were, in that order, 1000 to 10000 nM and 100 to 1000 nM.
As for `COC(C)(C)CNc1nc(Nc2ccncc2)nc(-c2ccccc2)n1` [Compound 252, N^2-(2-methoxy-2-methylpropyl)-6-phenyl-N^4-(pyridin-4-yl)-1,3,5-triazine-2,4-diamine], the IC50 was 1000 to 10000 nM on IDH2 R172K and 100 to 1000 nM on IDH2 R140Q.
Take `CC(C)Nc1nc(Nc2cncc(C(F)(F)F)c2)nc(-c2cccc(Cl)n2)n1` [Compound 394, 6-(6-chloropyridin-2-yl)-N^2-isopropyl-N4-(5-(trifluoromethyl)pyridin-3-yl)-1,3,5-triazine-2,4-diamine]: the IC50 was under 100 nM in test [1] (Homo sapiens, U-87 MG) and under 100 nM on IDH2 R140Q.
Regarding `CC(C)Nc1nc(Nc2cccc(S(C)(=O)=O)c2)nc(-c2cccc(C(C)(F)F)n2)n1` [Compound 395, 6-(6-(1,1-difluoroethyl)pyridin-2-yl)-N^2-isopropyl-N^4-(3-(methylsulfonyl)phenyl)-1,3,5-triazine-2,4-diamine], the IC50 in test [1] (Homo sapiens, U-87 MG) was under 100 nM; on IDH2 R140Q it was 100 to 1000 nM.
Turning to `CC(C)Nc1nc(Nc2ccnc(C(F)(F)F)c2)nc(-c2cccc(Cl)n2)n1` [Compound 396, 6-(6-chloropyridin-2-yl)-N^2-isopropyl-N4-(2-(trifluoromethyl)pyridin-4-yl)-1,3,5-triazine-2,4-diamine], the IC50 in test [1] (Homo sapiens, U-87 MG) was under 100 nM; at IDH2 R140Q, 100 to 1000 nM.
`CC(C)Nc1nc(Nc2cccc(S(C)(=O)=O)c2)nc(-c2cccc(C3CC3)n2)n1` [Compound 397, 6-(6-cyclopropylpyridin-2-yl)-N^2-isopropyl-N^4-(3-(methylsulfonyl)phenyl)-1,3,5-triazine-2,4-diamine]: the IC50 lay in the range of 100 to 1000 nM in test [1] (Homo sapiens, U-87 MG) and 100 to 1000 nM at IDH2 R140Q.
Regarding `CC(C)Nc1nc(Nc2cc(F)cc(F)c2)nc(-c2cccc(N)n2)n1` [Compound 398, 6-(6-aminopyridin-2-yl)-N^2-(3,5-difluorophenyl)-N^4-isopropyl-1,3,5-triazine-2,4-diamine], the IC50 in test [1] (Homo sapiens, U-87 MG) was under 100 nM; at IDH2 R140Q, under 100 nM.
As to `CC(C)CNc1nc(Nc2cncc(F)c2)nc(-c2cccc(Cl)n2)n1` [Compound 399, 6-(6-chloropyridin-2-yl)-N^2-(5-fluoropyridin-3-yl)-N^4-isobutyl-1,3,5-triazine-2,4-diamine], the IC50 in test [1] (Homo sapiens, U-87 MG) was under 100 nM; at IDH2 R140Q, 100 to 1000 nM.
The like results for `CC(C)Nc1nc(Nc2cccc(S(=O)(=O)N3CCC3)c2)nc(-c2cccc(Cl)n2)n1` [Compound 400, N^2-(3-(azetidin-1-ylsulfonyl)phenyl)-6-(6-chloropyridin-2-yl)-N^4-isopropyl-1,3,5-triazine-2,4-diamine] were, in that order, under 100 nM and 100 to 1000 nM.
On the same counts, the results for `CC(C)Nc1nc(Nc2cncc(C#N)c2)nc(-c2cccc(C(F)(F)F)n2)n1` [Compound 401, 5-(4-(isopropylamino)-6-(6-(trifluoromethyl)pyridin-2-yl)-1,3,5-triazin-2-ylamino)nicotinonitrile] are under 100 nM and 100 to 1000 nM.
On the same counts, the results for `Fc1cc(Nc2nc(NCC3CCCO3)nc(-c3cccc(C(F)(F)F)n3)n2)ccn1` (stereo not drawn) [Compound 402, N^2-(2-fluoropyridin-4-yl)-N^4-((tetrahydrofuran-2-yl)methyl)-6-(6-(trifluoromethyl)pyridin-2-yl)-1,3,5-triazine-2,4-diamine] are under 100 nM and 100 to 1000 nM.
Regarding `N#Cc1cc(Nc2nc(NCC3CCCO3)nc(-c3cccc(C(F)(F)F)n3)n2)ccn1` (stereo not drawn) [Compound 403, 4-(4-((tetrahydrofuran-2-yl)methylamino)-6-(6-(trifluoromethyl)pyridin-2-yl)-1,3,5-triazin-2-ylamino)picolinonitrile], the IC50 in test [1] (Homo sapiens, U-87 MG) was under 100 nM; on IDH2 R140Q, 100 to 1000 nM.
The like results for `CC(C)Nc1nc(Nc2ccnc(C#N)c2)nc(-c2cccc(C(F)(F)F)n2)n1` [Compound 404, 4-(4-(isopropylamino)-6-(6-(trifluoromethyl)pyridin-2-yl)-1,3,5-triazin-2-ylamino)picolinonitrile] were, in that order, under 100 nM and 100 to 1000 nM.
The like results for `CC(C)(O)CNc1nc(Nc2cncc(C(F)(F)F)c2)nc(-c2cccc(C(F)(F)F)n2)n1` [Compound 406, 2-methyl-1-(4-(6-(trifluoromethyl)pyridin-2-yl)-6-(5-(trifluoromethyl)pyridin-3-ylamino)-1,3,5-triazin-2-ylamino)propan-2-ol] were, in that order, under 100 nM and 100 to 1000 nM.
On the same counts, the results for `CC(C)(O)CNc1nc(Nc2cncc(F)c2)nc(-c2cccc(C(F)(F)F)n2)n1` [Compound 407, 1-(4-(5-fluoropyridin-3-ylamino)-6-(6-(trifluoromethyl)pyridin-2-yl)-1,3,5-triazin-2-ylamino)-2-methylpropan-2-ol] are 100 to 1000 nM and 100 to 1000 nM.
For `Fc1ccc(Nc2nc(NC3COC3)nc(-c3cccc(Cl)n3)n2)cn1` [Compound 410, 6-(6-chloropyridin-2-yl)-N^2-(6-fluoropyridin-3-yl)-N^4-(oxetan-3-yl)-1,3,5-triazine-2,4-diamine], the IC50 in test [1] (Homo sapiens, U-87 MG) is 100 to 1000 nM; at IDH2 R140Q, over 10000 nM.
For the compound `Fc1cncc(Nc2nc(NC3C4COCC43)nc(-c3cccc(C(F)(F)F)n3)n2)c1` (stereo not drawn) [Compound 411, N^2-(3-oxabicyclo[3.1.0]hexan-6-yl)-N^4-(5-fluoropyridin-3-yl)-6-(6-(trifluoromethyl)pyridin-2-yl)-1,3,5-triazine-2,4-diamine], the IC50 was under 100 nM in test [1] (Homo sapiens, U-87 MG) and 1000 to 10000 nM on IDH2 R140Q.
The like results for `O=C(Nc1nc(Nc2ccccc2)nc(-c2ccccc2)n1)c1ccc[nH]1` [Compound 414, 1H-Pyrrole-2-carboxylic acid (4-phenyl-6-phenylamino-[1,3,5]triazin-2-yl)-amide] were, in that order, 100 to 1000 nM and 100 to 1000 nM.
With `COC(=O)c1cc(Nc2nc(NC(C)C)nc(-c3ccccc3)n2)ccn1` [Compound 450, methyl 4-((4-(isopropylamino)-6-phenyl-1,3,5-triazin-2-yl)amino)picolinate], the IC50 in test [1] is under 100 nM; on IDH2 R140Q, 100 to 1000 nM.
With `CC(C)Nc1nc(Nc2ccnc(C(F)(F)F)c2)nc(-c2cc(Cl)cc(C(F)(F)F)c2)n1` [Compound 644, 6-(3-Chloro-5-trifluoromethyl-phenyl)-N-isopropyl-N′-(2-trifluoromethyl-pyridin-4-yl)-[1,3,5]triazine-2,4-diamine], the IC50 fell in the range of 1000 to 10000 nM on IDH2 R172K and 100 to 1000 nM on IDH2 R140Q.
In the case of `CC(C)Nc1nc(Nc2cccc(S(C)(=O)=O)c2)nc(-c2cc(F)cc(C(F)(F)F)c2)n1` [Compound 660, 6-(3-fluoro-5-(trifluoromethyl)phenyl)-N2-isopropyl-N4-(3-(methylsulfonyl)phenyl)-1,3,5-triazine-2,4-diamine], the IC50 lay in the range of 1000 to 10000 nM in test [1] (Homo sapiens, U-87 MG) and 100 to 1000 nM at IDH2 R140Q.

These data come from patent US9512107B2, “Therapeutically active compositions and their methods of use” (Agios Pharmaceuticals, Inc., priority 2012, dated 2016).
